Reference: US12570687B2, “Triterpenoid compounds, pharmaceutical compositions thereof, and their use for treating a nuclear receptor subfamily 4 group a member 1-mediated disease” (NUCMITO PHARMACEUTICALS COMPANY LIMITED, priority 2019, dated 2026)

Experiments:
Format in all cases: cell-based
[1] = system: MDA-MB-231 (breast cancer); assay: MTT antiproliferative assay, MDA-MB-231; details: Homo sapiens, MDA-MB-231, 10 μM, 48 or 72 h, read-out: inhibition of cell growth, MDA-MB-231
Method: (§1) The antiproliferative activity of a test compound was determined in cell lines: MDA-MB-231 (breast cancer), HepG2 (liver cancer), SW620 (colon cancer), A375 (malignant melanoma), A431 (epidermoid carcinoma), A549 (lung adenocarcinoma), and HeLa ([…]). MDA-MB-231, HepG2, SW480, SW620, A375, and A431 cells were cultured in Dulbecco's modified Eagle's medium (DMEM) containing 10% fetal bovine serum (FBS). HeLa cells were cultured in MEM/EBSS (MEM) containing 10% FBS. A549 cells were maintained in Kaighn's modification of Ham's F-12 medium containing 10% FBS. The colorimetric MTT (3-(4,5-dimethylthiazol-2-yl)-2,5-diphenyltetrazolium bromide) assay was used to measure the cell viability of different cells following treatment with the test compound.
(§2) Briefly cells were seeded in a 96 well plate at a density of 2,000-5,000 cells/well. Following attachment, the cells were treated with the test compound in media at various concentrations ranging from 0.137 to 100 μM or at a single concentration of 10 μM. After the cells were incubated at 37° C. for 48 or 72 h, MTT (20 μL, 5 mg/mL in PBS) was added to each well and the cells were incubated for another 4 h at 37° C. The supernatant was removed carefully and 150 μL of DMSO was added to each well to dissolve the MTT formazan crystals. The plate was shaken for 15-20 min and the absorbance value of each well was determined using a multi-well plate reader at 490 nm. The wells treated with DMSO were taken as a vehicle control. Data were also obtained similarly for all the replicates and the percentage viability was determined with respect to the DMSO-treated cells. The results are summarized in Table 1 below, wherein A represents no less than 80% inhibition of cell growth at 10 μM; B represents no less than 50% but less than 80% inhibition of cell growth at 10 μM; C represents no less than 30% but less than 50% inhibition of cell growth at 10 μM; and D represents less than 30% inhibition of cell growth at 10 μM.

[2] = system: HeLa (ovarian cancer); assay: MTT antiproliferative assay, HeLa; details: Homo sapiens, 48 or 72 h, read-out: inhibition of cell growth, HELA
Method: as §1, §2

[3] = system: SW620 (colon cancer); assay: MTT antiproliferative assay, SW620; details: Homo sapiens, SW-620, SW620, 10 μM, 48 or 72 h, read-out: inhibition of cell growth, SW620
Method: as §1, §2

[4] = system: A549 (lung adenocarcinoma); assay: MTT antiproliferative assay, A549; details: Homo sapiens, A549, 10 μM, 48 or 72 h, read-out: inhibition of cell growth, A549
Method: as §1, §2

[5] = system: A431 (epidermoid carcinoma); assay: MTT antiproliferative assay, A431; details: Homo sapiens, A-431, A431, 10 μM, 48 or 72 h, read-out: inhibition of cell growth, A431
Method: as §1, §2

[6] = system: A375 (malignant melanoma); assay: MTT antiproliferative assay, A375; details: Homo sapiens, A-375, A375, 10 μM, 48 or 72 h, read-out: inhibition of cell growth, A375
Method: as §1, §2

[7] = system: HepG2 (liver cancer); assay: MTT antiproliferative assay, HepG2; details: Homo sapiens, HepG2, 10 μM, 48 or 72 h, read-out: inhibition of cell growth, HepG2
Method: as §1, §2

CCO[C@]1(C)C(=O)C(=O)C=C2C1=CC=C1[C@@]2(C)CC[C@@]2(C)[C@@H]3C[C@](C)(C(=O)O)CC[C@]3(C)CC[C@]12C [Compound A28, (2R,4aS,6aS,9S,12bR,14aS,14bR)-9-ethoxy-2,4a,6a,9,12b,14a-hexamethyl-10,11-dioxo-1,2,3,4,4a,5,6,6a,9,10,11,12b,13,14,14a,14b-hexadecahydropicene-2-carboxylic acid]
inhibition at 10 µM [1]: 50 to 80% | inhibition at 10 µM [2]: ≥ 80% | inhibition at 10 µM [3]: 30 to 50% | inhibition at 10 µM [4]: 30 to 50% | inhibition at 10 µM [5]: 50 to 80% | inhibition at 10 µM [6]: 30 to 50% | inhibition at 10 µM [7]: 50 to 80%

CO[C@@]1(C)C2=CC=C3[C@@](C)(CC[C@@]4(C)[C@@H]5C[C@](C)(C(=O)O)CC[C@]5(C)CC[C@]34C)C2=CC(O)C1O (stereo partly drawn) [Compound A29, (2R,4aS,6aS,9S,12bR,14aS,14bR)-10,11-dihydroxy-9-methoxy-2,4a,6a,9,12b,14a-hexamethyl-1,2,3,4,4a,5,6,6a,9,10,11,12b,13,14,14a,14b-hexadecahydropicene-2-carboxylic acid]
inhibition at 10 µM [1]: < 30% | inhibition at 10 µM [2]: 50 to 80% | inhibition at 10 µM [3]: < 30% | inhibition at 10 µM [4]: < 30% | inhibition at 10 µM [5]: < 30% | inhibition at 10 µM [6]: < 30% | inhibition at 10 µM [7]: < 30%

CO[C@@]1(C)C2=CC=C3[C@@](C)(CC[C@@]4(C)[C@@H]5C[C@](C)(C(=O)O)CC[C@]5(C)CC[C@]34C)C2=CC(=O)/C1=C\C#N [Compound A30, (2R,4aS,6aS,9S,10Z,12bR,14aS,14bR)-10-(cyanomethylidene)-9-methoxy-2,4a,6a,9,12b,14a-hexamethyl-11-oxo-1,2,3,4,4a,5,6,6a,9,10,11,12b,13,14,14a,14b-hexadecahydropicene-2-carboxylic acid]
inhibition at 10 µM [1]: ≥ 80% | inhibition at 10 µM [2]: ≥ 80% | inhibition at 10 µM [3]: ≥ 80% | inhibition at 10 µM [4]: 30 to 50% | inhibition at 10 µM [5]: ≥ 80% | inhibition at 10 µM [6]: 50 to 80% | inhibition at 10 µM [7]: ≥ 80%

CO[C@@]1(C)C2=CC=C3[C@@](C)(CC[C@@]4(C)[C@@H]5C[C@](C)(C(=O)O)CC[C@]5(C)CC[C@]34C)C2=CC(=O)/C1=C/C#N [Compound A31, (2R,4aS,6aS,9S,10E,12bR,14aS,14bR)-10-(cyanomethylidene)-9-methoxy-2,4a,6a,9,12b,14a-hexamethyl-11-oxo-1,2,3,4,4a,5,6,6a,9,10,11,12b,13,14,14a,14b-hexadecahydropicene-2-carboxylic acid]
inhibition at 10 µM [1]: ≥ 80% | inhibition at 10 µM [2]: ≥ 80% | inhibition at 10 µM [3]: ≥ 80% | inhibition at 10 µM [4]: 50 to 80% | inhibition at 10 µM [5]: 50 to 80% | inhibition at 10 µM [6]: 50 to 80% | inhibition at 10 µM [7]: 50 to 80%

COC(=O)[C@]1(C)CC[C@]2(C)CC[C@]3(C)C4=CC=C5C(=CC(=O)C(=O)C5(C)O)[C@]4(C)CC[C@@]3(C)[C@@H]2C1 (stereo partly drawn) [Compound A32, methyl (2R,4aS,6aS,12bR,14aS,14bR)-9-hydroxy-2,4a,6a,9,12b,14a-hexamethyl-10,11-dioxo-1,2,3,4,4a,5,6,6a,9,10,11,12b,13,14,14a,14b-hexadecahydropicene-2-carboxylate]
inhibition at 10 µM [1]: ≥ 80% | inhibition at 10 µM [2]: ≥ 80% | inhibition at 10 µM [3]: ≥ 80% | inhibition at 10 µM [4]: ≥ 80% | inhibition at 10 µM [5]: ≥ 80% | inhibition at 10 µM [6]: 50 to 80% | inhibition at 10 µM [7]: ≥ 80%

COC(=O)[C@]1(C)CC[C@]2(C)CC[C@]3(C)C4=CC=C5C(=CC(=O)/C(=C\C#N)C5(C)O)[C@]4(C)CC[C@@]3(C)[C@@H]2C1 (stereo partly drawn) [Compound A33, methyl (2R,4aS,6aS,10Z,12bR,14aS,14bR)-10-(cyanomethylidene)-9-hydroxy-2,4a,6a,9,12b,14a-hexamethyl-11-oxo-1,2,3,4,4a,5,6,6a,9,10,11,12b,13,14,14a,14b-hexadecahydropicene-2-carboxylate]
inhibition at 10 µM [1]: ≥ 80% | inhibition at 10 µM [2]: ≥ 80% | inhibition at 10 µM [3]: ≥ 80% | inhibition at 10 µM [4]: 30 to 50% | inhibition at 10 µM [5]: 50 to 80% | inhibition at 10 µM [6]: 50 to 80% | inhibition at 10 µM [7]: ≥ 80%

COC(=O)[C@]1(C)CC[C@]2(C)CC[C@]3(C)C4=CC=C5C(=CC(=O)/C(=C/C#N)C5(C)O)[C@]4(C)CC[C@@]3(C)[C@@H]2C1 (stereo partly drawn) [Compound A34, methyl (2R,4aS,6aS,10E,12bR,14aS,14bR)-10-(cyanomethylidene)-9-hydroxy-2,4a,6a,9,12b,14a-hexamethyl-11-oxo-1,2,3,4,4a,5,6,6a,9,10,11,12b,13,14,14a,14b-hexadecahydropicene-2-carboxylate]
inhibition at 10 µM [1]: ≥ 80% | inhibition at 10 µM [2]: ≥ 80% | inhibition at 10 µM [3]: ≥ 80% | inhibition at 10 µM [4]: 50 to 80% | inhibition at 10 µM [5]: 50 to 80% | inhibition at 10 µM [6]: 50 to 80% | inhibition at 10 µM [7]: ≥ 80%

COC(=O)[C@]1(C)CC[C@]2(C)CC[C@]3(C)C4=CC=C5C(=CC(=O)C(O)C5(C)O)[C@]4(C)CC[C@@]3(C)[C@@H]2C1 (stereo partly drawn) [Compound A35, methyl (2R,4aS,6aS,12bR,14aS,14bR)-9,10-dihydroxy-2,4a,6a,9,12b,14a-hexamethyl-11-oxo-1,2,3,4,4a,5,6,6a,9,10,11,12b,13,14,14a,14b-hexadecahydropicene-2-carboxylate]
inhibition at 10 µM [1]: ≥ 80% | inhibition at 10 µM [2]: ≥ 80% | inhibition at 10 µM [3]: ≥ 80% | inhibition at 10 µM [4]: ≥ 80% | inhibition at 10 µM [5]: ≥ 80% | inhibition at 10 µM [6]: 50 to 80% | inhibition at 10 µM [7]: ≥ 80%

COC(=O)[C@]1(C)CC[C@]2(C)CC[C@]3(C)C4=CC=C5C(=C/C(=C\C#N)C(=O)C5(C)O)[C@]4(C)CC[C@@]3(C)[C@@H]2C1 (stereo partly drawn) [Compound A37, methyl (2R,4aS,6aS,11E,12bR,14aS,14bR)-11-(cyanomethylidene)-9-hydroxy-2,4a,6a,9,12b,14a-hexamethyl-10-oxo-1,2,3,4,4a,5,6,6a,9,10,11,12b,13,14,14a,14b-hexadecahydropicene-2-carboxylate]
inhibition at 10 µM [1]: ≥ 80% | inhibition at 10 µM [2]: ≥ 80% | inhibition at 10 µM [3]: 50 to 80% | inhibition at 10 µM [4]: < 30% | inhibition at 10 µM [5]: ≥ 80% | inhibition at 10 µM [6]: 30 to 50% | inhibition at 10 µM [7]: 30 to 50%

CC12OCCOC1(O)C(=O)C=C1C2=CC=C2[C@@]1(C)CC[C@@]1(C)[C@@H]3C[C@](C)(C(=O)O)CC[C@]3(C)CC[C@]21C (stereo partly drawn) [Compound A43, (6bS,8aS,11R,12aR,12bS,14aR)-16a-hydroxy-4a,6b,8a,11,12b,14a-hexamethyl-16-oxo-2,3,4a,6b,7,8,8a,9,10,11,12,12a,12b,13,14,14a,16,16a-octadecahydropiceno[3,4-b][1,4]dioxine-11-carboxylic acid]
inhibition at 10 µM [1]: < 30% | inhibition at 10 µM [2]: < 30% | inhibition at 10 µM [3]: < 30% | inhibition at 10 µM [4]: < 30% | inhibition at 10 µM [5]: < 30% | inhibition at 10 µM [6]: < 30% | inhibition at 10 µM [7]: < 30%

CO[C@]1(C)C(=O)C(=O)C=C2C1=CC=C1[C@@]2(C)CC[C@@]2(C)[C@@H]3C[C@](C)(C(=O)NCCO)CC[C@]3(C)CC[C@]12C [Compound A44, (2R,4aS,6aS,9S,12bR,14aS,14bR)—N-(2-hydroxyethyl)-9-methoxy-2,4a,6a,9,12b,14a-hexamethyl-10,11-dioxo-1,2,3,4,4a,5,6,6a,9,10,11,12b,13,14,14a,14b-hexadecahydropicene-2-carboxamide]
inhibition at 10 µM [1]: ≥ 80% | inhibition at 10 µM [2]: ≥ 80% | inhibition at 10 µM [3]: 50 to 80% | inhibition at 10 µM [4]: ≥ 80% | inhibition at 10 µM [5]: ≥ 80% | inhibition at 10 µM [6]: 30 to 50% | inhibition at 10 µM [7]: ≥ 80%

CO[C@]1(C)C(=O)C(=O)C=C2C1=CC=C1[C@@]2(C)CC[C@@]2(C)[C@@H]3C[C@](C)(C(=O)NO)CC[C@]3(C)CC[C@]12C [Compound A45, (2R,4aS,6aS,9S,12bR,14aS,14bR)—N-Hydroxy-9-methoxy-2,4a,6a,9,12b,14a-hexamethyl-10,11-dioxo-1,2,3,4,4a,5,6,6a,9,10,11,12b,13,14,14a,14b-hexadecahydropicene-2-carboxamide]
inhibition at 10 µM [1]: ≥ 80% | inhibition at 10 µM [2]: ≥ 80% | inhibition at 10 µM [3]: 50 to 80% | inhibition at 10 µM [4]: ≥ 80% | inhibition at 10 µM [5]: ≥ 80% | inhibition at 10 µM [6]: 50 to 80% | inhibition at 10 µM [7]: ≥ 80%
